According to US4066768A, “Derivatives of 1-phenoxy-3-amino-propan-2-ol” (Cassella Farbwerke Mainkur Aktiengesellschaft, priority 1973, dated 1978):

Tests used:
[1] = molecular target: T1, β2-receptors of the cardiovascular system (Canis lupus familiaris, UniProt P54833); test: Inhibition of isoproterenol-induced alteration of peripheral (femoral artery) perfusion in anaesthetised dogs (β2-receptor inhibition); assay type: in vivo, mongrel dogs; details: for ED50: dog, iv, read-out: β2-receptor inhibition ED 50; for Relative β2-receptor inhibition (reference substance = 100): relative ED 50, dogs
T1 construct: from tissue; host or cells: femoral artery vascular bed of anaesthetised mongrel dogs, in vivo
T1 sequence (P54833 whole entry, the tested form may be a part): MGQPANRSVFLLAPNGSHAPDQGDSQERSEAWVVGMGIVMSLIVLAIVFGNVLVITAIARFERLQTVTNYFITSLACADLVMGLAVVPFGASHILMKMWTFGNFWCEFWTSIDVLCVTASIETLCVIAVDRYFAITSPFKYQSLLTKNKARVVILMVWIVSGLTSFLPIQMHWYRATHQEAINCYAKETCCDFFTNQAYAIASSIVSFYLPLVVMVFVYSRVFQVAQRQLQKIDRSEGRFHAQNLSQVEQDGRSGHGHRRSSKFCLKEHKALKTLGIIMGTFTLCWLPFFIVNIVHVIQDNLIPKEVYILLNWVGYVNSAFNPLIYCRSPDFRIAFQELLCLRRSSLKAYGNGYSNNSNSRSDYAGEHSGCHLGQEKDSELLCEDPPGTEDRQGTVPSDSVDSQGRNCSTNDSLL
Description: (§1) The blocking action of the compounds according to the invention on the β1-receptors of the heart and on the β2-receptors of the cardiovascular system was investigated as follows: the blood pressure in the left-hand ventricle was measured on mongrel dogs of both sexes under an anaesthesia by Chloralose-urethane-morphine and the pressure signal was continuously differentiated by means of an analogue computer (BRUSH Instruments, Cleveland/Ohio) and, inter alia, the rate of pressure increase (Dp/dt) was recorded. In addition, the perfusion of a femoral artery was measured by means of an electromagnetic flow-meter (Model […] of Messrs. Statham) and the perfusion was recorded in ml/minute. […] DUNLOP and […]: Selective blockade of adrenoceptive beta-receptors in the heart. Brit. J. Pharmac. Chemother. (1968) 32, 201-218). […] The higher this quotient is, the better the cardioselective action.

[2] = molecular target: T2, β1-receptors of the heart (Canis lupus familiaris, UniProt P79148); test: Inhibition of isoproterenol-induced increase in rate of pressure rise (Dp/dt max.) in left ventricle of anaesthetised dogs (β1-receptor inhibition); assay type: in vivo, mongrel dogs; details: for ED50: dog, iv, read-out: β1-receptor inhibition ED 50; for Quotient: ED 50 of β2-receptor inhibition / ED 50 of β1-receptor inhibition / Relative quotient, on basis of reference substance = 1 / Relative β1-receptor inhibition (reference substance = 100): dogs; for Quotient: ED 50 of β2-receptor inhibition / ED 50 of β1-receptor inhibition: cardioselectivity, higher = better; for Relative quotient, on basis of reference substance = 1: relative cardioselectivity factor; for Relative β1-receptor inhibition (reference substance = 100): relative ED 50, lower = more active
T2 construct: from tissue; host or cells: heart (left ventricle) of anaesthetised mongrel dogs, in vivo
T2 sequence (P79148 whole entry): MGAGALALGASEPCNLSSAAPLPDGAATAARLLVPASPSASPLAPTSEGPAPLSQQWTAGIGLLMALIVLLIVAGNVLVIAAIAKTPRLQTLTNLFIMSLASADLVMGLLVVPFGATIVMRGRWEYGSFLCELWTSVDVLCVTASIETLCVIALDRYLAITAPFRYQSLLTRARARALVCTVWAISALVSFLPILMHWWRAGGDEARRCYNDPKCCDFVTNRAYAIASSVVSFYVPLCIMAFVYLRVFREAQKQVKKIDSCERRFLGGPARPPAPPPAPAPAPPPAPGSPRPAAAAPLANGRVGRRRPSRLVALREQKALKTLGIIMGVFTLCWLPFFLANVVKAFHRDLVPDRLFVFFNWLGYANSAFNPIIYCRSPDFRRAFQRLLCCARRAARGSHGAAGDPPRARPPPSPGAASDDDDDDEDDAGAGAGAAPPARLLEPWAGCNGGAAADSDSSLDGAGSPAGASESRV
Description: as §1

tracheal β2-receptors = molecular target: T3, tracheal β2-receptors (Cavia porcellus, UniProt Q8K4Z4); test: Inhibition of isoproterenol-induced relaxation of contracted isolated tracheal chain (β2-receptor inhibition); set-up: species or system guinea pigs
T3 construct: isolated tracheal chain of guinea pigs; from tissue; host or cells: isolated guinea pig tracheal chain
T3 sequence (Q8K4Z4 whole entry): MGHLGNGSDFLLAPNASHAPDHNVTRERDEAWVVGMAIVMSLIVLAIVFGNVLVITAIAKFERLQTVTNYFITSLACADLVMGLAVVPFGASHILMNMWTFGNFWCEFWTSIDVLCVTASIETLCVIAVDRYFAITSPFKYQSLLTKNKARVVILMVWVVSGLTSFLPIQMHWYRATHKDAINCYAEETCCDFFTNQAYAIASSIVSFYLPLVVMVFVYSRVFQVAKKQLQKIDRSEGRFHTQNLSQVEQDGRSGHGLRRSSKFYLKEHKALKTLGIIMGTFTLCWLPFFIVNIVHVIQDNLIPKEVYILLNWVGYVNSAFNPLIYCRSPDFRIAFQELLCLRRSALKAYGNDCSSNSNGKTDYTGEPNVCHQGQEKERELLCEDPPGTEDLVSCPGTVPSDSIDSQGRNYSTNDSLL
Description: The isoproterenol-induced relaxation of contracted isolated tracheal chain of guinea pigs represents the response of the tracheal β2-receptors. The bath concentrations of the antagonists which reduce the isoproterenol effects by 50% were determined: ED-50 : g/ml bath.

cardiac β1-receptors = test: Inhibition of isoproterenol-induced increase in heart rate in anaesthetized guinea pigs (β1-receptor inhibition); assay type: in vivo; details: for β1-receptor inhibition, parameter: heart rate response to isoproterenol: ED-50: i.v., guinea pigs anaesthetized with urethane, isoproterenol 0.5 gamma/animal
Description: The isoproterenol-induced increase in heart rate in anaesthetized animals represents mainly the response of the cardiac β1-receptors. The dose of the antagonists (mg/kg i.v.) which inhibits this response of isoproterenol (0.5 gamma/animal) in guinea pigs, anaesthetized with urethane, by 50% : ED-50 was determined.

Row | IC50 (tracheal β2-receptors; bath concentration reducing isoproterenol effects by 50%, guinea pig trachea, read-out: β2-receptor inhibition, parameter: isolated tracheal chain: ED-50 (converted)) [µM] | Relative β2-receptor inhibition (reference substance = 100) (tracheal β2-receptors; isolated tracheal chain, guinea pigs) | Structure (SMILES) | ED50 [1] [mg/kg] | Relative β2-receptor inhibition (reference substance = 100) [1] | ED50 [2] [mg/kg] | Quotient: ED 50 of β2-receptor inhibition / ED 50 of β1-receptor inhibition [2] | Relative quotient, on basis of reference substance = 1 [2] | Relative β1-receptor inhibition (reference substance = 100) [2] | Relative β1-receptor inhibition (reference substance = 100) (cardiac β1-receptors; heart rate, guinea pigs) | β1-receptor inhibition, parameter: heart rate response to isoproterenol: ED-50 (cardiac β1-receptors) [mg/kg]
1 | – | – | Cc1ccc(C(O)CC(C)NCC(O)COc2ccc(OCCO)cc2)cn1 (centres unmarked) [1-(-p-[2-Hydroxy-ethoxy]-henoxy)-3-(1-[2-methyl-pyridyl-5]-1-hydroxy-butyl(3)-amino)-propan-2-ol] | 8.14 | 30.7 | 0.073 | 112 | 1 | 30.7 | – | –
2 | – | – | C=CCNC(=O)Nc1ccc(OCC(O)CNC(C)CC(O)c2cnc(C)nc2C)cc1 (centres unmarked) [1-(p-Allylureido-phenoxy)-3-(1-[2,4-dimethyl-pyrimidyl-5]-1-hydroxy-butyl(3)-amino)-propan-2-ol] | – | – | 0.019 | – | – | 7.9 | – | –
3 | – | – | Cc1ncc(C(O)CC(C)NCC(O)COc2ccc(NC(=O)NC3CCCCC3)cc2)c(C)n1 (centres unmarked) [1-(p-Cyclohexylureido-phenoxy)-3-(1-[2,4-dimethyl-pyrimidyl-5] -1-hydroxy-butyl(3)-amino)-propan-2-ol] | 1.38 | 5.2 | 0.011 | 128 | 1.1 | 4.6 | – | –
4 | – | – | Cc1ccc(C(O)CC(C)NCC(O)COc2ccc(NC(=O)NC3CCCCC3)cc2)cn1 (centres unmarked) [1-(p-Cyclohexylureido-phenoxy)-3-(1-[2-methyl-pyridyl-5]-1-hydroxy-butyl(3)-amino)-propan-2-ol] | 1.57 | 5.9 | 0.006 | 245 | 2.4 | 2.5 | – | –
5 | – | – | CC(CC(O)c1cccnc1)NCC(O)COc1ccc(NC(=O)NC2CCCCC2)cc1 (centres unmarked) [1-(p-Cyclohexylureidophenoxy)-3-(1-hydroxy-1-pyridyl-(3)-butyl3-amino)-propan-2-ol] | 1.02 | 3.8 | 0.003 | 409 | 2.9 | 1.3 | – | –
6 | – | – | CCOCCOc1ccc(OCC(O)CNC(C)CC(O)c2cccnc2)cc1 (centres unmarked) [1-(p-Ethoxyethoxy-phenoxy)-3-(1-[pyridyl-3]-1-hydroxy-butyl(3)-amino)-propan-2-ol] | 2.76 | 10.1 | 0.009 | 296 | 2.7 | 3.8 | – | –
7 | – | – | CCOCc1ccc(OCC(O)CNC(C)CC(O)c2cnc(C)nc2C)cc1 (centres unmarked) [1-(p-Ethoxymethylene-phenoxy)-3-(1-[2,4-dimethyl-pyrimidyl-5]-1-hydroxy-butyl(3)-amino)-propan-2-ol] | 2.88 | 10.7 | 0.019 | 144 | 1.4 | 7.9 | – | –
8 | – | – | CCOCc1ccc(OCC(O)CNC(C)CC(O)c2cccnc2)cc1 (centres unmarked) [1-(p-Ethoxymethylene-phenoxy)-3-(1-[pyridyl-3]-1-hydroxy-butyl(3)-amino)-propan-2-ol] | – | – | 0.01 | – | – | 4.2 | – | –
9 | – | – | CCNC(=O)Nc1ccc(OCC(O)CNC(C)CC(O)c2cnc(C)nc2C)cc1 (centres unmarked) [1-(p-Ethylureido-phenoxy)-3-(1-[2,4-dimethyl-pyrimidyl-5-]-1-hydroxy-butyl(3)-amino)-propan-2-ol] | 12.8 | 48.3 | 0.093 | 137 | 1.2 | 39.1 | – | –
10 | – | – | CCNC(=O)Nc1ccc(OCC(O)CNC(C)CC(O)c2cccnc2)cc1 (centres unmarked) [1-(p-Ethylureido-phenoxy)-3-(1-[pyridyl-3]-1-hydroxy-butyl(3)-amino)-propan-2-ol] | – | – | 0.013 | – | – | 5.5 | – | –
11 | – | – | Cc1ncc(C(O)CC(C)NCC(O)COc2ccc(NC(=O)NC(C)C)cc2)c(C)n1 (centres unmarked) [1-(p-Isopropylureido- -phenoxy)-3-(1-[2,4-dimethyl-pyrimidyl-5]-1-hydroxy-butyl(3)-amino)-propan-2-ol] | 2.71 | 10.2 | 0.022 | 124 | 1.1 | 9.2 | – | –
12 | – | – | COCCCCOc1ccc(OCC(O)CNC(C)CC(O)c2cnc(C)nc2C)cc1 (centres unmarked) [1-(p-Methoxybutoxy-phenoxy)-3-(1-[2,4-dimethyl-pyrimidyl-5]-hydroxy-butyl(3)-amino)-propan-2-ol] | 16 | 58.8 | 0.089 | 176 | 1.6 | 37.4 | – | –
13 | 6.94 | 7.7 | CCCOCCOc1ccc(OCC(O)CNC(C)CC(O)c2ccc(C)nc2)cc1 (centres unmarked) [1-(p-[2-n-propoxy-ethoxy]-phenoxy)-3-(1-[2-methyl-pyridyl-5]-1-hydroxy-butyl(3)-amino)-propan-2-ol] | 5.1 | 19.2 | 0.035 | 146 | 1.3 | 14.7 | 3.39 | 0.177
14 | – | – | CC(=O)Nc1ccc(OCC(O)CNC(C)C)cc1 (centres unmarked) [4-(2-Hydroxy-3-isopropylamino-propoxy)-acetanilide, reference compound] | – | – | – | – | – | – | – | 5.3
